According to PMC3672471 (The Biochemical journal, 2009):
pKd: −log10 of the molar value.

Target: β-lactoglobulin (Bos taurus, UniProt P02754)
Test: isothermal titration calorimetry
Assay type: binding

Sequence of β-lactoglobulin (P02754 17-178): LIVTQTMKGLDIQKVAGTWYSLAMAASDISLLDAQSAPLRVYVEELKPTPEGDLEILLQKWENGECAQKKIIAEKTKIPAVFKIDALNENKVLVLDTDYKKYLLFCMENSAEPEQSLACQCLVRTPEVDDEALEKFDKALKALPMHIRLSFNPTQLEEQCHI

SMILES: CCCCCC(=O)OC[C@@H](O)COP(=O)(O)O [HHGP, 1-hexanoyl-2-hydroxy-sn-glycero-3-phosphate]
- pKd: 5.85
